This is an account of results in the Deep4Chem optical property database.

This data set can be described thus: solvent given as SMILES.

As to `COc1ccc(/C=C/C2=[O+][B-](F)(F)OC(/C=C/c3ccc(OC)cc3)=C2c2ccccc2)cc1`, the emission maximum came out at 564 nm (in CC#N); 549 nm (in CC(C)=O); 534 nm (in CCOC(C)=O); 520 nm (in CCOCC); 515 nm (in ClC(Cl)(Cl)Cl); 554 nm (in ClCCl).

Regarding `O=P(c1ccccc1)(c1ccccc1)c1cccc(-n2c(-c3ccccc3P(=O)(c3ccccc3)c3ccccc3)nc3ccccc32)c1`, the emission maximum (in ClCCl) worked out at 384 nm.

On to `COc1cc2c(cc1OC)C1=C[C@H](c3ccc(C)cc3)C3(C(C#N)=C(C#N)N1CC2)c1cc(Cl)ccc1-c1ccc(Cl)cc13`, for which the emission maximum (in ClCCl) amounted to 402 nm.

On to `CCCN1C(=O)C(=CC=CC=C2Oc3ccccc3N2CCCS(=O)(=O)[O-])C(=O)N(CCC)C1=S`, for which the emission maximum is 584 nm (in C1COCCO1); 580 nm (in CC(C)=O); 583 nm (in CCCCO); 581 nm (in CCCO); 579 nm (in CCO); 577 nm (in CO). The emission maximum (in ClC(Cl)Cl) is reported as 589 nm and the emission maximum (in O) is 573 nm.

Take `CC1(C)c2ccccc2N(c2ccc3c(c2)c2cc(N4c5ccccc5C(C)(C)c5ccccc54)ccc2c2nc(C#N)c(C#N)nc32)c2ccccc21`: the emission maximum is given as 753.65 nm (in C1COCCO1), 572.45 nm (in CCCCCC), 678 nm (in Cc1ccccc1) and 618 nm (in O=P(c1ccccc1)(c1ccccc1)c1cccc(-c2cc(-n3c4ccccc4c4ccccc43)cc(-n3c4ccccc4c4ccccc43)c2)n1).

As for `COc1nc(Nc2ccc3c4c(cccc24)C(=O)c2ccccc2-3)nc(OC)n1`, the emission maximum is 554.02 nm (in CC#N); 533.9 nm (in CC(C)=O); 576.04 nm (in CC(C)O); 516 nm (in CCCCOCCCC); 523.01 nm (in CCOC(C)=O); 520.02 nm (in CCOCC). Besides, the emission maximum was 586.85 nm (in CO); 521.92 nm (in Cc1ccccc1); 526.87 nm (in Clc1ccccc1); 535.91 nm (in N#Cc1ccccc1); 531.91 nm (in O=C1CCCCC1).

For the setting “in CC1CCCO1”, `O=c1cc2c(-c3c(O)c4cccc5ccc6oc(=O)cc3c6c54)c(O)c3cccc4ccc(o1)c2c43` yielded an emission maximum of 552 nm.

`COC(=O)/C(C#N)=c1/cc/c(=c2/cc/c(=C(\C#N)C(=O)OC)s2)s1` gave an emission maximum (in Cc1ccccc1) of 601 nm.

Molecule `CC(=O)c1ccc(-c2cnc3nn4ccccc4c3n2)cc1` registered an emission maximum (in C1CCOC1) of 455 nm.

With `Cc1cc(O)c(C(=O)/C=C/c2ccccc2Cl)c(=O)o1`, the emission maximum by setting is: (in CC#N) 481 nm; (in ClCCl) 469 nm.

`Cc1c(C)n2c(COC(=O)c3ccccc3I)c(C)c(=O)n2c1=O`: the emission maximum (in CCO) was found to be 461 nm.

Consider `COc1cc(/C=C/c2nc(N3CCOCC3)c3c([n+]2[O-])CCCC3)cc(OC)c1OC`, for which the emission maximum (in ClCCl) was found to be 521 nm.

`C(#Cc1nc(C#Cc2cccs2)c(C#Cc2cccs2)c(C#Cc2cccs2)c1C#Cc1cccs1)c1cccs1`: the emission maximum (in ClCCl) came to 441 nm.

With `Cc1ccc(C2=C3C=CC(c4ccccc4)=[N+]3[B-](F)(F)n3c2ccc3-c2ccccc2)cc1`, the emission maximum is listed as 585 nm (in C1CCCCC1); 586 nm (in C1CCOC1); 587 nm (in C1COCCO1); 583 nm (in CCOC(C)=O); 582 nm (in CO); 589 nm (in Cc1ccccc1). Where the note is “in ClC(Cl)Cl”, this molecule gave an emission maximum of 588 nm.

As for `Cc1c(C2=[N+]3C(=Cc4c(C)c5ccccc5n4[B-]3(F)F)c3ccccc32)[nH]c2ccccc12`, the emission maximum is listed as 646 nm (in C1CCOC1); 637 nm (in CC#N); 644 nm (in CCCCCC); 643 nm (in CO); 656 nm (in Cc1ccccc1); 648 nm (in ClCCl).

Under “in Cc1ccccc1”, `COc1ccc(N(c2ccc(C=C(c3ccccc3)c3ccccc3)cc2)c2ccc(OC)cc2)cc1` displayed an emission maximum of 489 nm.

As to `O=C(O)CCCOc1cc2ccc3cccc4ccc(c1)c2c34`, for the setting “in CO”, the emission maximum is 382 nm.

`COc1cc(/C=C/C(=O)O)ccc1O` had an emission maximum (in O) of 413 nm.

Take `CCCCn1c2ccccc2c2ccc3c4cc(-c5ccc(C(F)(F)F)cc5)ccc4n(CCCC)c3c21`: the emission maximum (in ClC(Cl)Cl) is 402 nm.

With `Cc1ccc2c(c1)C1(c3ccccc3-c3ccccc31)c1cc(C)ccc1N2c1ccc(-c2ncccn2)cc1`, the emission maximum reads like this: (in Cc1ccccc1) 461 nm; (in O=P(c1ccccc1)(c1ccccc1)c1ccc2oc3ccc(P(=O)(c4ccccc4)c4ccccc4)cc3c2c1) 466 nm.

For `Cc1ccc(C)cc1`, where the note is “in C1CCCCC1”, the emission maximum worked out at 292.06 nm.

Consider `COCCOCCOCCOCC(COCCOCCOCCOC)Oc1cc(/C=C/c2ccc(/C=C(\C#N)c3ccccc3)cc2)c(OC(COCCOCCOCCOC)COCCOCCOCCOC)cc1/C=C/c1ccc(/C=C(\C#N)c2ccccc2)cc1`, for which, under “in ClCCl”, the emission maximum turned out to be 539 nm.

As for `CCN(CC)c1ccc2cc(/C=C/C(=C(C#N)C#N)c3ccc4c(c3)c3ccccc3n4CC)c(=O)oc2c1`, the emission maximum (in CC(C)=O) is recorded as 614 nm; the emission maximum (in CCOC(C)=O) is listed as 590 nm; the emission maximum (in CN(C)C=O) amounted to 629 nm; the emission maximum (in CS(C)=O) worked out at 638 nm; the emission maximum (in Cc1ccccc1) turned out to be 571 nm; the emission maximum (in ClCCl) turned out to be 604 nm.

`CCCCCCOc1ccc2oc3c(c2c1)=CC1=C(c2ccccc2C)c2cc4c5cc(OCCCCCC)ccc5oc4n2[B-](F)(F)[N+]=31`: the emission maximum reads like this: (in C1CCCCC1) 603 nm; (in CCOC(C)=O) 602.5 nm; (in CO) 603 nm.

On to `CCC1=C(C)C(=O)n2c1cc1c(C)c(CC(=O)OC)c(C)n1c2=O`, for which the emission maximum is recorded as 525 nm (in CO), 500 nm (in CS(C)=O), 490 nm (in ClC(Cl)Cl) and 465 nm (in c1ccccc1).

With `N#Cc1cc(-n2c3ccccc3c3cccnc32)c(-n2c3ccccc3c3cccnc32)cc1C#N`, the emission maximum came out at 504.42 nm (in CC#N); 386.98 nm (in CCCCCC); 417.44 nm (in Cc1ccccc1); 468.37 nm (in ClCCl); 441.06 nm (in c1cc(-n2c3ccccc3c3ccccc32)cc(-n2c3ccccc3c3ccccc32)c1).

With `CC1=[N+]2C(=C(c3ccccc3)c3c4c(c(C)n3[B-]2(F)F)CCc2ccccc2-4)C2=C1CCc1ccccc12`, the emission maximum (in CC#N) worked out at 612 nm.

As to `COC(=O)C([NH3+])Cc1ccc2oc(-c3ccncc3)nc2c1` (centres undefined), the emission maximum is, setting by setting: (in CC1CCCCC1) 356.11 nm; (in CC#N) 367.92 nm; (in CO) 379.88 nm; (in O) 402.82 nm.

`CC1=C(Cl)C(/C=C/c2ccc3c(c2)c2ccccc2n3Cc2cn(CCC[P+](c3ccccc3)(c3ccccc3)c3ccccc3)nn2)=[N+]2C1=C(c1ccc(I)cc1)c1c(C)c(Cl)c(C)n1[B-]2(F)F` displayed an emission maximum (in CCO) of 650 nm.

`C1=C(c2ccccc2)S[C@]23C1=C(c1ccccc1)[C@H](c1ccccc12)c1ccccc13`: the emission maximum (in ClCCl) turned out to be 491 nm.

In turn, `CCOC(=O)c1ccc(C2CC(c3cccc4ccccc34)=NN2c2ccc(C#N)cc2)cc1` (centres undefined) showed an emission maximum (in ClCCl) of 430 nm.

Take `CN(C)c1ccc(C2=[N+]3C(=Nc4c(-c5ccc(O)cc5)cc(-c5ccc(N(C)C)cc5)n4[B-]3(F)F)C(c3ccc(O)cc3)=C2)cc1`: the emission maximum reads like this: (in C1CCOC1) 815 nm; (in CS(C)=O) 832 nm; (in Cc1ccccc1) 813 nm.

In turn, `CCOCCOCCOC(=O)/C=C/C1=CC2=C(c3c(C)cc(C)cc3C)c3cc(/C=C/C(=O)OCCOCCOCC)cn3[B-](F)(F)[N+]2=C1` showed an emission maximum (in ClCCl) of 606 nm.

With `Cc1ccc(C(=O)/C=C/c2ccc(N(C)C)cc2)cc1`, the emission maximum was 503 nm (in C1CCOC1); 529 nm (in CC#N); 512 nm (in CC(=O)O); 516 nm (in CC(C)=O); 533 nm (in CCO); 528 nm (in CN(C)C=O). In addition, the emission maximum amounted to 533 nm (in CO), 477 nm (in Cc1ccccc1), 508 nm (in ClC(Cl)Cl) and 473 nm (in c1ccccc1).

For `CCCCCCn1c2cc(/C=C(\C#N)c3cccs3)ccc2c2ccc(/C=C(\C#N)c3cccs3)cc21`, the emission maximum (in ClC(Cl)Cl) worked out at 469.48 nm.

Take `CC[n+]1ccc(/C=C/c2cc(OC)c(C=O)cc2OC)cc1`: the emission maximum reads like this: (in C1CCOC1) 557 nm; (in CC#N) 566 nm; (in CN(C)C=O) 565 nm; (in Cc1ccccc1) 554 nm; (in ClCCl) 561 nm; (in O) 558 nm.

`C1=Cc2ccccc2Cc2ccccc21`: the emission maximum (in CC#N) came out at 383 nm and the emission maximum (in CO) is given as 380 nm.

`CCN(CC)c1ccc2cc(-c3cn4cc(OC)ccc4n3)c(=O)oc2c1` had an emission maximum (in ClC(Cl)Cl) of 478 nm.

As for `CN(C)c1ccc2c(-c3cc(N)ccc3C(=O)[O-])c3ccc(=[N+](C)C)cc-3oc2c1`, the emission maximum came to 567 nm (in CCO) and 574 nm (in O).

On to `CSc1ccc2c(c1)N(CCCN(C)C)c1ccccc1S2`, for which the emission maximum reads like this: (in CC#N) 460 nm; (in CO) 455 nm; (in O) 475 nm.

`COC(=O)CC1(C(=O)O)Oc2c(c(C(C)=O)c3c(c2C(C)=O)OCO3)O1`: the emission maximum (in CC#N) amounted to 547 nm.

For the setting “in ClCCl”, `CCc1ccc(C2=[N+]3C(=Cc4c5ccc(OC)cc5c(-c5ccc(CC)s5)n4[B-]3(F)F)c3ccc(OC)cc32)s1` gave an emission maximum of 780 nm.

`C[Si](C)(C)c1cccc2c(C#N)cccc12`: for the setting “in C1CCCCC1”, the emission maximum is recorded as 333 nm.

Turning to `c1ccc2c3c(ccc2c1)-c1c2ccccc2cc2cccc-3c12`, the emission maximum (in CCCCCCC) was determined as 603 nm.
